The values below come from US20110092490A1, “PYRIMIDINES, TRIAZINES AND THEIR USE AS PHARMACEUTICAL AGENTS” (THE UNIVERSITY OF NOTTINGHAM, priority 2008, published 2011).

Read-outs that look alike come from different tables or passages of the source.

One data set concerns HCT-116. Kind of data set: 72-h MTT cytotoxicity assay. The class given is cell-based, human. To be noted: for GI50: Homo sapiens, HCT-116, HCT116 cells, 72-h MTT. How it is done: (§1) MTT cytotoxicity assay. […] Human tumour cell lines were obtained from ECACC (European Collection of Cell Cultures). Standard 72-h MTT (thiazolyl blue; 3-[4,5-dimethylthiazol-2-yl]-2,5-diphenyltetrazolium bromide, 2 mg/ml in phosphate buffered saline) assays were performed. In short: cells were seeded into 96-well plates according to doubling time and incubated overnight at 37° C. Test compounds were made up in DMSO and a ⅓ dilution series prepared in 100 μL cell media, added to cells (in triplicates) and incubated for 72 hr at 37° C. MTT was made up as a stock of 5 mg/mL in cell media and filter-sterilised. Media was removed from cells followed by a wash with 200 μL PBS. MTT solution was then added at 20 μL per well and incubated in the dark at 37° C. for 4 h. MTT solution was removed and cells again washed with 200 μL PBS. MTT dye was solubilised with 200 μL per well of DMSO with agitation. Absorbance was read at 550 nm on an Anthos Labtec Systems plate reader.

The subject of the next data set is MCF-7. Kind of data set: 72-h MTT cytotoxicity assay. To be noted: for GI50: Homo sapiens, MCF7 cells, 72-h MTT. The class given is cell-based, human. How it is done: as §1
Background: Tetrazolium assays rely on reduction of a dye to a coloured formazan, in cell work by metabolically active cells.

The subject of the next data set is A2780. Kind of data set: 72-h MTT cytotoxicity assay. The class given is cell-based. To be noted: read-out: 72-h MTT IC50 (μM), human cell line, ovarian carcinoma. How it is done:
(§2) MTT cytotoxicity assay. The compounds from the examples above were subjected to a standard cellular proliferation assay using the method described previously (Haselsberger, K. et al. Anti Cancer Drugs 1996, 7, (3), 331-8. Loveland, B. E. et al. Biochemistry International 1992, 27, (3), 501-10). Human tumour cell lines were obtained from ECACC (European Collection of Cell Cultures). Standard 72-h MTT (thiazolyl blue; 3-[4,5-dimethylthiazol-2-yl]-2,5-diphenyltetrazolium bromide, 2 mg/ml in phosphate buffered saline) assays were performed. In short: cells were seeded into 96-well plates according to doubling time and incubated overnight at 37° C. Test compounds were made up in DMSO and a ⅓ dilution series prepared in 100 μL cell media, added to cells (in triplicates) and incubated for 72 hr at 37° C. MTT was made up as a stock of 5 mg/mL in cell media and filter-sterilised. Media was removed from cells followed by a wash with 200 μL PBS. MTT solution was then added at 20 μL per well and incubated in the dark at 37° C. for 4 h. MTT solution was removed and cells again washed with 200 μL PBS. MTT dye was solubilised with 200 μL per well of DMSO with agitation. Absorbance was read at 550 nm on an Anthos Labtec Systems plate reader.

The next data set relates to A549. The data set is described as follows: 72-h MTT cytotoxicity assay. The class given is cell-based. The settings on record: read-out: 72-h MTT IC50 (μM), human cell line, lung. On the procedure:
as §2

The test system of the next data set is HeLa. The data set is described as follows: 72-h MTT cytotoxicity assay. The class given is cell-based. To be noted: read-out: 72-h MTT IC50 (μM), human cell line, cervix. On the procedure:
as §2

In another data set the test system is MDA-MB-231. The data set is described as follows: 72-h MTT cytotoxicity assay. The data set is classed as cell-based. The settings on record: read-out: 72-h MTT IC50 (μM), human cell line, breast. How it is done:
as §2

The subject of the next data set is Mia-Paca-2. The data set is described as follows: 72-h MTT cytotoxicity assay. The class given is cell-based. To be noted: read-out: 72-h MTT IC50 (μM), human cell line, pancreatic carcinoma. How it is done: as §2
The next data set concerns NCI-H460. Kind of data set: 72-h MTT cytotoxicity assay. The class given is cell-based. To be noted: read-out: 72-h MTT IC50 (μM), human cell line, lung. On the procedure:
as §2

The test system of another data set is PANC W1. The data set is described as follows: 72-h MTT cytotoxicity assay. The class given is cell-based. To be noted: read-out: 72-h MTT IC50 (μM), human cell line, pancreatic carcinoma. On the procedure:
as §2

The next data set relates to Human tumour cell lines. Kind of data set: 72-h MTT cytotoxicity assay, human tumour cell lines (panel / mean). The class given is cell-based. To be noted: read-out: 72-h MTT IC50 (μM), mean over the nine human cell lines of Table A2. How it is done: as §2
The target of the next data set is CDK2 (Homo sapiens, UniProt P24941). Kind of data set: Kinase assay (radioactive phosphate incorporation). To be noted: CDK2-cyclinE; read-out: Kinase inhibition IC50 CDK2-cyclinE. The class given is biochemical. How it is done: (§3) Kinase assays. […] This was achieved by measurement of incorporation of radioactive phosphate from ATP into appropriate polypeptide substrates. Recombinant protein kinases and kinase complexes were produced or obtained commercially. Assays were performed using 96-well plates and appropriate assay buffers (typically 25 mM β-glycerophosphate, 20 mM MOPS, 5 mM EGTA, 1 mM DTT, 1 mM […], pH 7.4), into which were added 2-4 μg of active enzyme with appropriate substrates. The reactions were initiated by addition of Mg/ATP mix (15 mM MgCl2+100 μM ATP with 30-50 kBq per well of [γ-^32P]-ATP) and mixtures incubated as required at 30° C.; Reactions were stopped on ice, followed by filtration through p81 filterplates or GF/C filterplates (Whatman Polyfiltronics, Kent, UK). After washing 3 times with 75 mM aq orthophosphoric acid, plates were dried, scintillant added and incorporated radioactivity measured in a scintillation counter (TopCount, Packard Instruments, Pangbourne, Berks, UK). Compounds for kinase assay were made up as 10 mM stocks in DMSO and diluted into 10% DMSO in assay buffer.

In the next data set the target is CDK9 (Homo sapiens, UniProt P50750). Kind of data set: Kinase assay (radioactive phosphate incorporation). The data set is classed as biochemical. How it is done:
as §3

For the next data set, the target named is CDK7 (Homo sapiens, UniProt P50613). Kind of data set: Kinase assay (radioactive phosphate incorporation). The class given is biochemical. To be noted: CDK7-cyclinH; read-out: Kinase inhibition IC50 CDK7-cyclinH. On the procedure: Kinase assays. The compounds from the examples above were investigated for their ability to inhibit the enzymatic activity of various protein kinases using the method as disclosed in Wang, S. et al. J Med Chem 2004, 47, 1662. This was achieved by measurement of incorporation of radioactive phosphate from ATP into appropriate polypeptide substrates. Recombinant protein kinases and kinase complexes were produced or obtained commercially. Assays were performed using 96-well plates and appropriate assay buffers (typically 25 mM β-glycerophosphate, 20 mM MOPS, 5 mM EGTA, 1 mM DTT, 1 mM […], pH 7.4), into which were added 2-4 μg of active enzyme with appropriate substrates. The reactions were initiated by addition of Mg/ATP mix (15 mM MgCl2+100 μM ATP with 30-50 kBq per well of [γ-^32P]-ATP) and mixtures incubated as required at 30° C.; Reactions were stopped on ice, followed by filtration through p81 filterplates or GF/C filterplates (Whatman Polyfiltronics, Kent, UK). After washing 3 times with 75 mM aq orthophosphoric acid, plates were dried, scintillant added and incorporated radioactivity measured in a scintillation counter (TopCount, Packard Instruments, Pangbourne, Berks, UK). Compounds for kinase assay were made up as 10 mM stocks in DMSO and diluted into 10% DMSO in assay buffer.
CDK7, sequence (P50613 whole entry, species assumed): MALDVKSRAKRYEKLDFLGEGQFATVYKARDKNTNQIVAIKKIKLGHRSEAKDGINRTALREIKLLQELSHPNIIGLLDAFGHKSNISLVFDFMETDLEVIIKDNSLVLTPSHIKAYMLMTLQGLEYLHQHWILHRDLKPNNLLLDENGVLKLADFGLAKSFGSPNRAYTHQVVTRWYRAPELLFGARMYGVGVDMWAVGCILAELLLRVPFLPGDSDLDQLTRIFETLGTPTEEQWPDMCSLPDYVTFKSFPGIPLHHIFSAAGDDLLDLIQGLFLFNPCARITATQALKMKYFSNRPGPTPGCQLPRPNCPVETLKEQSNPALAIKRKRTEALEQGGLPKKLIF
CDK7, sequence (P51946 whole entry partner, species assumed): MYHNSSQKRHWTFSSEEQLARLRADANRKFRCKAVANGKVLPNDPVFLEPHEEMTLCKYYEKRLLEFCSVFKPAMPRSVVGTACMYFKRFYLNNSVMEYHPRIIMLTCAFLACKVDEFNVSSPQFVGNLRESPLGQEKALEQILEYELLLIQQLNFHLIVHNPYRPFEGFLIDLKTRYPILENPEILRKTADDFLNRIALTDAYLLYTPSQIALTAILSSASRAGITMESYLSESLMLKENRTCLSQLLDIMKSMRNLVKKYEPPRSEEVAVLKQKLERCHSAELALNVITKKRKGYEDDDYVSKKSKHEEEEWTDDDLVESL

The nature of data set [1]: 72-h MTT cytotoxicity assay. The data set is classed as cell-based. The settings on record: human, MRC5 cells. On the procedure:
as §1

The mark [2] stands for this setting: CDK9-cyclinT1, read-out: Kinase inhibition IC50 CDK9-cyclinT1.

CDK9, sequence (P50750 whole entry, species assumed): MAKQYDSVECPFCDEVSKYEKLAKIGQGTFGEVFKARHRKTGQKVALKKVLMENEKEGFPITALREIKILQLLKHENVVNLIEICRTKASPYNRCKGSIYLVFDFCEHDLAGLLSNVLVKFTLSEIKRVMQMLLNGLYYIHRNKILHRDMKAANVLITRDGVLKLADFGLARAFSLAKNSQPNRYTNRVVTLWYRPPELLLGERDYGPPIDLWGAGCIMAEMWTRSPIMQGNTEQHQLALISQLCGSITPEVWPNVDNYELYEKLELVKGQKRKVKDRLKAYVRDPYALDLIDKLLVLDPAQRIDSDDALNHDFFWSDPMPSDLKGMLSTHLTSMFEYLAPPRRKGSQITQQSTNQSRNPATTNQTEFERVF
CDK9, sequence (O60563 whole entry partner, species assumed): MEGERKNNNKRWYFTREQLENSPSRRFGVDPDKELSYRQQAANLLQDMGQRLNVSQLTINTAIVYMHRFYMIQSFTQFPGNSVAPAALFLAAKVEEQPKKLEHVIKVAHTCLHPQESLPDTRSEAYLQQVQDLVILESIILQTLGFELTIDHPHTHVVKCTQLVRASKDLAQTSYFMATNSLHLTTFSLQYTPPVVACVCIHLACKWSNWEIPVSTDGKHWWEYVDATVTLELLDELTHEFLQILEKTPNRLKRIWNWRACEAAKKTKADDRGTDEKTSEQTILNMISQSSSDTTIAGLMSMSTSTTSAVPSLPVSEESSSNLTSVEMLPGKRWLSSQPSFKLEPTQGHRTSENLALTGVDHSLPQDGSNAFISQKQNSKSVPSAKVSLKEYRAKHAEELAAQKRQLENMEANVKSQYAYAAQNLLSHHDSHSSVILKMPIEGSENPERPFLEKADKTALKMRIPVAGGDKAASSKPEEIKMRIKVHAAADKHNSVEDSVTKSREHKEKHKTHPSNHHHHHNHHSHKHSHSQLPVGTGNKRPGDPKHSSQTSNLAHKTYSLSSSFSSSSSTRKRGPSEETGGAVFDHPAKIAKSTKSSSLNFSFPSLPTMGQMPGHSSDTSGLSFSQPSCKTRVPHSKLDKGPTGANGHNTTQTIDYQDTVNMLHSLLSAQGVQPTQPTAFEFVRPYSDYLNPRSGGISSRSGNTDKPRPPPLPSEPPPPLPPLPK

Take `CNc1nc(C)c(-c2nc(Nc3ccc(C)c(S(=O)(=O)N4CCOCC4)c3)ncc2C#N)s1` [Example 1.1, 4-(4-Methyl-2-methylamino-thiazol-5-yl)-2-[4-methyl-3-(morpholine-4-sulfonyl)-phenylamino]-pyrimidine-5-carbonitrile]: the GI50 in the data set with HCT-116 and with MCF-7 was 60 nM in each case. Besides, the IC50 with HCT-116 (read-out: 72-h MTT IC50 (μM), human cell line HCT-116 (origin not given, stands under cervix), 72 h) amounted to 0.06 µM; in the data set with MCF-7 (MCF7, read-out: 72-h MTT IC50 (μM), human cell line, breast, MCF-7, 72 h), 0.06 µM; in the data set with A2780 it was 0.147 µM; with A549 it was 0.534 µM; in the data set with HeLa, 0.661 µM; in the data set with MDA-MB-231, 0.923 µM. In addition, the IC50 worked out at 0.468 µM in the data set with Mia-Paca-2; 0.681 µM in the data set with NCI-H460; 0.366 µM in the data set with PANC W1; 0.433 µM with Human tumour cell lines; 232 nM on CDK2; 41 nM at CDK9 (setting [2]). For the same compound, the IC50 at CDK7 was above 1000 nM. Halving of growth in [1] (GI50 at 72 h) required 3140 nM.
With `CNc1nc(C)c(-c2nc(Nc3ccc(O)cc3)ncc2C#N)s1` [Example 1.2, 2-(4-Hydroxy-phenylamino)-4-(4-methyl-2-methylamino-thiazol-5-yl)-pyrimidine-5-carbonitrile], the GI50 in the data set with HCT-116 was 400 nM; with MCF-7, 230 nM. The compound further displayed a concentration for 50% growth inhibition (GI50) at 72 h in data set [1] of 1050 nM.
As for `CNc1nc(C)c(-c2nc(Nc3cccc(O)c3)ncc2C#N)s1` [Example 1.3, 2-(3-Hydroxy-phenylamino)-4-(4-methyl-2-methylamino-thiazol-5-yl)-pyrimidine-5-carbonitrile], the IC50 on CDK9 was found to be 19 nM.
With `CNc1nc(C)c(-c2nc(Nc3cccc(C(=O)N4CCOCC4)c3)ncc2C#N)s1` [Example 1.4], the GI50 was found to be 590 nM in the data set on HCT-116 and 820 nM with MCF-7. Besides, the IC50 on CDK2 came out at 147 nM; at CDK9 (setting [2]), 85 nM; at CDK7 it was 3740 nM. In data set [1], the GI50 at 72 h amounted to 4430 nM.
Consider `CNc1nc(C)c(-c2nc(Nc3cccc(C(=O)N4CCN(C(C)=O)CC4)c3)ncc2C#N)s1` [Example 1.5, 2-(3-(4-Acetylpiperazine-1-carbonyl)phenylamino)-4-(4-methyl-2-(methylamino)-thiazol-5-yl)pyrimidine-5-carbonitrile], for which the IC50 on CDK2 is 52 nM; on CDK9 (setting [2]), 33 nM.
For the compound `CNc1nc(C)c(-c2nc(Nc3cccc(C(=O)O)c3)ncc2C#N)s1` [Example 1.6, 3-(5-cyano-4-(4-methyl-2-(methylamino)thiazol-5-yl)pyrimidin-2-ylamino)benzoic acid], the GI50 in the data set with HCT-116 turned out to be 550 nM; with MCF-7, 1870 nM. This compound also returned a GI50 at 72 h in data set [1] above 100000 nM.
With `CNc1nc(C)c(-c2nc(Nc3ccc(S(N)(=O)=O)cc3)ncc2C#N)s1` [Example 1.8, 4-(5-cyano-4-(4-methyl-2-(methylamino)thiazol-5-yl)pyrimidin-2-ylamino)benzenesulfonamide], the values for the GI50 in the data set with HCT-116 and with MCF-7 were 340 nM and 1640 nM, respectively. Further, the GI50 at 72 h in data set [1] was found to be 26000 nM.
In turn, `COc1cccc(-c2nc(Cl)nc(Nc3ccc(O)cc3)n2)c1` [Example 2.1, 4-(4-chloro-6-(3-methoxyphenyl)-1,3,5-triazin-2-ylamino)phenol] had a melting point of 93.5 to 94 °C.
For `COc1cccc(-c2nc(Cl)nc(Nc3cccc([N+](=O)[O-])c3)n2)c1` [Example 2.2, 4-chloro-6-(3-methoxyphenyl)-N-(3-nitrophenyl)-1,3,5-triazin-2-amine], the melting point lay within 196.9 to 197.2 °C.
The compound `COc1cccc(-c2nc(Cl)nc(Nc3cccc(Br)c3)n2)c1` [Example 2.3, N-(3-bromophenyl)-4-chloro-6-(3-methoxyphenyl)-1,3,5-triazin-2-amine] registered a melting point of 141.9 to 142.1 °C.
Turning to `COc1cccc(-c2nc(Cl)nc(Nc3ccc(C)c(S(=O)(=O)N4CCOCC4)c3)n2)c1` [Example 2.4, 4-chloro-6-(3-methoxyphenyl)-N-(4-methyl-3-(morpholinosulfonyl)phenyl)-1,3,5-triazin-2-amine], the results for the GI50 in the data set with HCT-116 and in the data set on MCF-7 were 530 nM and 1580 nM, respectively. In addition, the GI50 at 72 h in data set [1] worked out at 580 nM.
The corresponding values for `COc1cccc(-c2nc(N)nc(Nc3cccc([N+](=O)[O-])c3)n2)c1` [Example 2.6, 6-(3-methoxyphenyl)-N2-(3-nitrophenyl)-1,3,5-triazine-2,4-diamine] are 7090 nM, 7070 nM and 37600 nM.
In the same order, the values of `COc1cccc(-c2nc(NO)nc(Nc3cccc([N+](=O)[O-])c3)n2)c1` [Example 2.8, 4-(hydroxyamino)-6-(3-methoxyphenyl)-N-(3-nitrophenyl)-1,3,5-triazin-2-amine] are 3480 nM, 6420 nM and 4240 nM.

What is called GI50 is the concentration that inhibits growth by half. Low values mean greater sensitivity of the cells, high ones lower sensitivity of the cells. A word on the IC50: it is the midpoint of a concentration-inhibition curve. The term melting point denotes the temperature of the solid-liquid transition.
